For 18 molecules, GI50 and TGI results are on record in PubChem BioAssay (NCI).

Values joined by “and” are separate entries in the source; they are usually repeats but may differ in a detail not shown here. Equal entries are not always repeated.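 Dose response: 5 concentrations. Exposure: 48 h. Format: 96-well plates. Endpoint: linear interpolation; highest concentration if not reached. GI50 marks 50% less growth. TGI is the concentration that stops growth completely.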 Where a SMILES comes first, the peptide text is derived from it. [ ]: non-standard residue; d: D form. The star is where a group is joined. ξ: configuration not given here. NMeN = CN[C@@H](CC(N)=O)C(=O)O; NMeV = CN[C@H](C(=O)O)C(C)C; ξNMeV = CNC(C(=O)O)C(C)C; Boc = CC(C)(C)OC(=O)*; ξNMeA = CNC(C)C(=O)O

Test in all cases: NCI-60 cell line screen, 48 h
Test [1] concerns BT-549 breast.
For test [2], the system named is HS 578T breast.
Test [3] concerns MCF7 breast.
Test [4] concerns T-47D breast.
Test [5] relates to DLD-1 colon.
Test [6] deals with DMS 114 small cell lung.
In test [7] the test system is LXFL 529 NSCLC.
In test [8] the test system is M19-MEL melanoma.

With `COc1ccc(-c2nc3ncccn3c2/C=C/C(=O)c2cc(OC)c(OC)c(OC)c2)cc1`, the GI50 is 1.45 µM in test [1], 1.91 µM in test [2], 1.14 µM in test [3] and 2.53 µM in test [4]. The TGI amounted to 5.92 µM in test [1], 14.7 µM in test [2], 3.32 µM in test [3] and 14.9 µM in test [4].

For the molecule `Cc1ccc(NC(=O)CCC/C(CC(=O)c2ccc(Br)cc2)=N/NC(=O)CC#N)cc1`, the TGI in test [5], in test [6], in test [7] and in test [8] was greater than 100 µM each time.

Turning to `O=[N+]([O-])c1ccc(N=Nc2c(O)ccc3ccccc23)cc1`, the GI50 in test [1] is 30.3 µM and > 100 µM; in test [2], 18.3 µM and > 100 µM. Also, the TGI in test [1] is 96.1 µM and > 100 µM; in test [2], 46.6 µM and > 100 µM; in test [3], greater than 100 µM; in test [4], greater than 100 µM.

Consider `O=C1c2ccccc2C2(O)NC(=S)N(c3ccccc3)C12O` (stereo not drawn), for which the TGI in test [5], in test [6], in test [7] and in test [8] was greater than 100 µM each time.

Take `Cc1cc(N2CCCC2)nc(NC2CCCC(Nc3ccnc4cc(Cl)ccc34)C2)n1` (stereo not drawn): the GI50 was 1.8 µM in test [1], 2 µM in test [2], 0.563 µM in test [3] and 1.71 µM in test [4]. Moreover, the TGI in test [1] amounted to 3.35 µM; in test [2], 4.72 µM; in test [3] it was 2.63 µM; in test [4], 4.83 µM.

With `NC1CCCCC1N.O=S(=O)([O-])CCCN1CCOCC1.O=S(=O)([O-])CCCN1CCOCC1.[Pt+4]`, the GI50 in test [5] is 28.3 µM; in test [7], 27.4 µM; in test [8] it was 4.52 µM. Besides, the TGI in test [5], in test [7] and in test [8] was greater than 100 µM throughout.

Turning to `COC(=O)C(=O)C(C#N)c1ccc(CC#N)cc1` (stereo not drawn), the TGI in test [5], in test [7] and in test [8] was greater than 100 µM in each case.

On to `Cc1nc2cc(N)c(F)cc2[nH]1`, for which the TGI in test [5], in test [6], in test [7] and in test [8] was greater than 100 µM throughout.

Turning to `Cc1cc(I)cc(CN(C)CCN2CCCC2)c1O`, the GI50 in test [1] is 18.7 µM; in test [2] it was 31.6 µM; in test [3] it was 24.3 µM; in test [4], 21.5 µM. Moreover, the TGI in test [1] amounted to 48.8 µM; in test [2], 67.1 µM; in test [3] it was 53.7 µM; in test [4], 76 µM.

Regarding `Cc1ccc(C(=O)C(Cl)C(Cl)c2ccc(C)cc2)cc1` (stereo not drawn), the TGI worked out at 9.2 µM in test [1], 76.3 µM in test [2], 18.6 µM in test [3] and 4.86 µM in test [4].

For `C[C@]12CC[C@H](OCCC#N)CC1=CC[C@@H]1C2CC[C@]2(C)/C(=N/OCCC#N)CCC12` (stereo partly drawn), the TGI in test [5], in test [6], in test [7] and in test [8] was greater than 100 µM each time.

Consider `C=C[C@H]1CCC/C=C/[C@@H]2C[C@H](O)C[C@H]2[C@H](O)/C=C/C(=O)O1`, for which the GI50 in test [1] was 0.05 µM; in test [2], less than 0.01 µM; in test [3] it was 0.021 µM; in test [4] it was 0.0285 µM. In addition, the TGI in test [1] is greater than 100 µM; in test [2] it was greater than 100 µM; in test [3], 0.0532 µM; in test [4], 0.0973 µM.

With `COc1ccc(CNc2c3ccccc3nc3ccc(OC)cc23)cc1`, the GI50 in test [1] was 4.25 µM; in test [2] it was 2.85 µM; in test [3] it was 2.11 µM; in test [4], 3.54 µM. The TGI in test [1] is 15.8 µM; in test [2], 8.68 µM; in test [3], 5.71 µM; in test [4], 18.9 µM.

In the case of `NC(=O)c1ccc2c(-c3ccnc(NCCCO)n3)c(-c3ccc(F)cc3)nn2c1`, the GI50 in test [1] is greater than 25 µM; in test [2], greater than 25 µM; in test [3], greater than 16.9 µM; in test [4], greater than 25 µM. Moreover, the TGI in test [1], in test [2], in test [3] and in test [4] was greater than 25 µM throughout.

Regarding `Cc1cc(N2CCN(c3ccnc4cc(Cl)ccc34)CC2)nc(NC2CCCCC2)n1`, the GI50 in test [1] is 1.66 µM; in test [2] it was 2.1 µM; in test [3], 1.57 µM; in test [4], 1.89 µM. For the same molecule, the TGI in test [1] was 3.28 µM; in test [2], 6.62 µM; in test [3] it was 3.47 µM; in test [4] it was 4.7 µM.

Turning to `CC[Si](CC)(CC)OC[C@]1([C@@H]2COC(C)(C)O2)CC=CC(=O)O1`, the GI50 in test [1] is 20.2 µM; in test [2] it was 34.6 µM; in test [3], 43.6 µM; in test [4] it was greater than 100 µM. In addition, the TGI is 71.2 µM in test [1], greater than 100 µM in test [2], greater than 100 µM in test [3] and greater than 100 µM in test [4].

As to `O=C(N/N=C/c1ccccc1Cl)c1ccccc1Nc1ccnc(C(F)(F)F)c1`, the GI50 in test [1] is 1.77 µM; in test [2], 1.82 µM; in test [3] it was 0.706 µM; in test [4], 1.33 µM. Moreover, the TGI in test [1] amounted to 7.13 µM; in test [2], 7.23 µM; in test [3] it was 4.52 µM; in test [4], 6.41 µM.

For `COC(=O)C(C)N(C)C(=O)[C@H](CC(N)=O)N(C)C(=O)[C@@H]1CCCN1C(=O)[C@H](C(C)C)N(C)C(=O)C(C(C)C)N(C)C(=O)[C@@H](NC(=O)OC(C)(C)C)C(C)C` (stereo partly drawn) (Boc-V[ξNMeV][NMeV]P[NMeN][ξNMeA]-OMe), the TGI in test [1] is greater than 50 µM; in test [5] it was greater than 100 µM; in test [7], greater than 100 µM; in test [8] it was greater than 100 µM; in test [3], greater than 50 µM; in test [4] it was greater than 50 µM.
